{"source": "patent US20140296257A1", "about": "“High-Loading Water-Soluable Carrier-Linked Prodrugs” (Ascendis Pharma A/S, priority 2011, published 2014)", "conditions": "pH 7.4 buffer, 37° C., released paliperidone plotted against time", "method": "Sample was incubated at 37° C. At various time points aliquots were analyzed by UPLC and the amount of released paliperidone was plotted against time. […] Curve fitting software was used to determine half life time of drug release from the respective conjugate."}
{"substance": "4-arm PEG 20 kDa-octapaliperidone [Conjugate 5]", "values": [{"measurement": "Drug release kinetics", "value": "first order kinetics"}]}
